In patent US20150239831A1, “INHIBITORS OF CENTRAL NERVOUS SYSTEM VASOACTIVE INHIBITORY PEPTIDE RECEPTOR 2” (The Trustees Of Columbia University In The City Of New York, priority 2012, published 2015):
pIC50: −log10 of the molar value. “Also recorded” adds a separate entry of the source. Where two headings read alike, the source gives them in different places.

Biological target: T1, VIPR2 (Homo sapiens, UniProt P41587)
T1 sequence (P41587 24-438): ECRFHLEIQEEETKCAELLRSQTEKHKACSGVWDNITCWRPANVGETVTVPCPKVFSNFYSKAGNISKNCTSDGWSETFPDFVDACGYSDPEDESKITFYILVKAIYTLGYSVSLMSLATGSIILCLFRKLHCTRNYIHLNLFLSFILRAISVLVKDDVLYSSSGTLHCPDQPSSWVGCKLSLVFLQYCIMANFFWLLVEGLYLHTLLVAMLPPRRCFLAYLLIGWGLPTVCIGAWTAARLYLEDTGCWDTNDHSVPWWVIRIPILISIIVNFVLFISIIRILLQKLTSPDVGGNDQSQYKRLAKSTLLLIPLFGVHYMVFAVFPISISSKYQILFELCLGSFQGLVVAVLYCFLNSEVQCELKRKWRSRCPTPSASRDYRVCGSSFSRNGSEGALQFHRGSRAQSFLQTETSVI
Experiment: BRET-based VIPR2 activation assay (CAMYEL cAMP sensor, CHO cells, VIP background)
Format: cell-based
Settings: for VIPR2 inhibition in BRET-based assay (in words): FIG. 1C, FIG. 5
Source text: In such a system, a detector cell is used which expresses both the VIPR2 receptor and “CAMYEL,” a YFP-Epac-RLuc8 BRET sensor construct. This construct includes Epac1, a guanine nucleotide exchange factor activated by direct binding of cAMP, fused with an enhanced YFP and Renilla luciferase 8 (Rluc8) allowing BRET upon cAMP-induced conformational changes (Jiang et al., 2007, J Biol Chem. 282:10576-10584). In response to elevated cAMP levels, there is a conformational change in Epac and therefore a change in the proximity of the fused chromophores, Rluc8 and YFP, resulting in measurable energy transfer. Coexpression of this BRET construct with VIPR2, optionally tagged at the N-terminus with a signal peptide and FLAG epitope (SF-VIPR2), for example in HEK293 cells, allows for detection of a VIPR2-specific response to cAMP. BRET readout may be calculated by quantifying the ratio of the light emitted by the acceptor, YFP (λ=525 nm), over the emission from the donor, RLuc8 (λ=485 nm). The proximity of the donor and acceptor, and therefore the BRET ratio, decreases in the presence of cAMP. In non-limiting specific embodiments, a stable cell line may be generated for this assay using the Flp-In T-Rex system in HEK293 cells. This system allows site-specific single copy integration of the gene of interest and control of expression levels using the Tet-repressor site making receptor expression tetracycline-inducible. For example, a CAMYEL and VIPR2 expressing line may be induced with 0.01 μg/ml tetracycline, then, 24 hours later cells may be collected and distributed into 96-well plates. After treatment with candidate inhibitor compound, for example at 5, 1 and 0.5 μM concentrations, cells may be incubated with the light emitting luciferin, coelenterazine H, for 5 min and incubated for 5 min with VIP at increasing concentrations, for example ranging from […] to 10 μM. The fluorescence and luminescence may then be quantified, for example using a PHERAstar (BMG) plate reader. […] Alternatively, analogous experiments may be performed using human cells harvested from a patient having a VIPR2 copy number variation, for example (but not by way of limitation) pluripotent stem cells prepared from such a patient and then transfected with a CAMYEL construct.
Numerous cellular assays were developed that were able to detect VIP responses absent of interference from non-specific vasopressin receptors using this CHO based system. VIPR2 is a Gs coupled receptor. Activation of VIPR2 by VIP leads to both an elevation in cAMP signaling and the recruitment of β-arrestin. A variety of combinations can be transiently transfect into these CHO cells for the assessment of cellular responses to VIP. For the BRET readout CHO cell lines expressing an YFP-Epac-RLuc8 (CAMYEL) BRET sensor were used to detect changes in cAMP. This construct includes Epac1, a guanine nucleotide exchange factor activated by direct binding of cAMP, fused to an enhanced YFP and RLuc8 allowing a change in BRET upon cAMP-induced conformational changes. The key for medium to high throughput screening assays is the use of stable cell lines allowing the continuous assaying of multiple compounds with the ability to generate large numbers of cells for rapid use. In these lines VIPR2 was expressed as one of the stable cell lines assays. This was introduced into the CHO-Flp-IN to allow the generation of isogenic stable cell lines expressing high levels of VIPR2 under control of the CMV promoter. This has been introduced into this line together with the CAMYEL construct previously described. This allows for detection of VIPR2-specific responses to cAMP. EYFP fluorescence and RLuc8 luminescence is quantified in the presence of 5 μM light-emitting luciferin, coelenterazine H, using a PHERAstar (BMG) plate reader. BRET is calculated by quantifying the ratio of the light emitted by the acceptor, YFP (λ=525 nm), over the emission from the donor, RLuc8 (λ=485 nm).
3. […]

[1] = Table 2, read-out: BRET results (IC50)

Structure (SMILES)	pIC50 (Table 1, read-out: IC50)	pIC50 [1]	VIPR2 inhibition in BRET-based assay (in words)
N#Cc1ccc(S(=O)(=O)NC[C@@H](O)C[C@@H](Cc2ccccc2)C(=O)N[C@H]2c3ccccc3C[C@H]2O)cc1 [C]	5.88	5.88	
CC(C)c1ccc(S(=O)(=O)NC[C@@H](O)C[C@@H](Cc2ccccc2)C(=O)N[C@H]2c3ccccc3C[C@H]2O)cc1 [Compound A10]		5.46	
COc1ccc(S(=O)(=O)NC[C@@H](O)C[C@@H](Cc2ccccc2)C(=O)N[C@H]2c3ccccc3C[C@H]2O)cc1 [E]	5.99	5.99	
O=C(N[C@H]1c2ccccc2C[C@H]1O)[C@H](Cc1ccccc1)C[C@H](O)CNS(=O)(=O)c1ccc(C(F)(F)F)cc1 [F]		5.63	greater activity than Compound 1; also recorded: greater effect on V IPR2 inhibition than Compound 1
Cc1ccc(S(=O)(=O)NC[C@@H](O)C[C@@H](Cc2ccccc2)C(=O)N[C@H]2c3ccccc3C[C@H]2O)cc1 [I]	5.93	5.70	
CC(=O)c1ccc(S(=O)(=O)NC[C@@H](O)C[C@@H](Cc2ccccc2)C(=O)N[C@H]2c3ccccc3C[C@H]2O)cc1 [K]	6.37	6.37	significantly improved activity as an antagonist at VIPR2
